We go through 42 compounds from the COVID Moonshot data (paper PMC11187573), “Identification of SARS-CoV-2 Mpro inhibitors through deep reinforcement learning for de novo drug design and computational chemistry approaches” (RSC Medicinal Chemistry, 2024).

Usually IC50 stands for the concentration that gives 50% inhibition. Read a low IC50 as inhibition by little substance. What is called inhibition is the drop in the measured response relative to a control, in per cent.

Assay [1] concerns the target SARS-CoV-2 Main Protease (SARS-CoV-2) (UniProt P0DTD1).
The target is the same in assay [2]. This is another data set of the same source.
Protocol: Briefly, compounds were seeded into assay-ready plates (Greiner 384PP, cat# 781280) using an ECHO 650T dispenser and DMSO was back-filled for a uniform concentration in assay plates (DMSO concentration < 1%, final volume = 500 nL.). […] After a quick centrifugation step (1000 rpm, 15 s) the plate is incubated for 15 min at room temperature. […] After centrifugation (1000 rpm, 14 s) the reaction is incubated for 10 min (11-mer) or 5 min (37-mer) at room temperature before quenching with 10 % formic acid. The reactions are analysed with MS using RapidFire (RF) 365 high-throughput sampling robot (Agilent) connected to an iFunnel Agilent 6550 accurate mass quadrupole time-of-flight (Q-TOF) mass spectrometer using electrospray. […] Dose response curves uses an 11-point range of 100--0.0017 µM inhibitor concentrations. RapidFire integrator software (Agilent) was used to extract the charged states from the total ion chromatogram data followed by peak integration. For the 11-mer peptide the m/z (+1) charge states of both the substrate (1191.67 Da) and cleaved N-terminal product TSAVLQ (617.34 Da) were used and the 37-mer peptide the m/z (+2) charge states of the substrate (3960.94 Da) and m/z (+1) of the cleaved C-terminal product [sequence] (1125.57 Da). Percentage conversion (product peak integral / (product peak integral + substrate peak integral))*100) and percentage inhibitions were calculated and normalised against DMSO control with deduction of any background signal in Microsoft Excel. IC50s were calculated using Levenberg–Marquardt algorithm used to fit a restrained Hill equation to the dose-response data with both GraphPad PRISM and CDD.

Regarding `CNC(=O)c1cc(Cl)cc(CC(=O)Nc2cnccc2C)c1`, the half-maximal inhibitory concentration (IC50) in assay [1] is 51.5 µM; in assay [2] it was 43.9 µM.
Take `CC(C)Cn1cc(NC(=O)NCCc2ccc(Cl)cc2)c2ccccc2c1=O`: the inhibition was 22.5% in assay [1] (20.0 µM) and -1.58% in assay [1] (50.0 µM). This compound also registered an IC50 in assay [2] of 95.9 µM.
As to `CC(C)C[C@H](NC(=O)OCc1ccccc1)C(=O)N[C@H](C(=O)NCC(=O)C=[N+]=[N-])C(C)C` (stereo in doubt), the inhibition in assay [1] (50.0 µM) turned out to be 11.5%; in assay [2] (50.0 µM) it was 15.3%.
The matching figures for `C[C@@H]1CS/C(=N\NC(=O)C(=O)C(NC(=O)C2CCCCCC2)C2CCOCC2)N1C` (stereo in doubt): 2.64% and 21%.
Turning to `O=C1Nc2ccc(OCCF)cc2C1=O`, the inhibition in assay [1] (20.0 µM) is -6.86%; in assay [1] (50.0 µM), -2.92%; in assay [2] (50.0 µM), 56.2%. In assay [2], the half-inhibitory concentration (IC50) is 45.2 µM.
For `N#Cc1cncc(NC(=O)Cc2c[nH]c3ncccc23)c1`, the values for the inhibition in assay [1] (20.0 µM), in assay [1] (50.0 µM) and in assay [2] (50.0 µM) were -0.384%, 0.0775% and 0%, respectively.
With `COc1ccccc1OCC(C)NC(=O)c1cc(=O)[nH]c2ccc(F)cc12` (stereo not given), the results for the inhibition in assay [1] (20.0 µM), in assay [1] (50.0 µM) and in assay [2] (50.0 µM) were 42%, 59.3% and 40.1%, respectively.
Take `O=[N+]([O-])c1cnc(Sc2nccc(-c3cccnc3)n2)s1`: the inhibition in assay [1] (20.0 µM) was determined as 9.63%; in assay [1] (50.0 µM), 37.5%. This compound displayed an IC50 in assay [2] of 1.44 µM.
As to `C/C(O)=C(\C#N)C(=O)Nc1ccc(C(F)(F)F)cc1`, the inhibition in assay [1] (20.0 µM) is -2.89%; in assay [1] (50.0 µM), -3%; in assay [2] (50.0 µM) it was 22.2%.
Take `O=C1C(=O)N(Cc2ncon2)c2ccc(Br)cc21`: the inhibition in assay [1] (20.0 µM) was -1.88%; in assay [1] (50.0 µM) it was -2.4%; in assay [2] (50.0 µM), 94.1%. The compound also had an IC50 in assay [2] of 3.79 µM.
For `CCOc1ccccc1CN1C(=O)C(=O)c2cc(Br)ccc21`, the inhibition was found to be 0.566% in assay [1] (20.0 µM), 3.64% in assay [1] (50.0 µM) and 72.2% in assay [2] (50.0 µM). The same compound had a 50% inhibitory concentration (IC50) in assay [2] of 12.4 µM.
For the compound `OC[C@@]1(F)CCN(c2nc(-c3cccnc3)nc3sc4c(c23)CCC4)C1` (stereo in doubt), the inhibition in assay [1] (20.0 µM) is 1.46%; in assay [1] (50.0 µM) it was 6.05%; in assay [2] (50.0 µM), 0%.
For the compound `Cc1ccc(OCCN2C(=O)C(=O)c3cccc(Cl)c32)cc1`, the inhibition in assay [1] (20.0 µM) turned out to be 0.316%; in assay [1] (50.0 µM), 5.65%; in assay [2] (50.0 µM) it was 77%. In addition, the half-inhibitory concentration (IC50) in assay [2] amounted to 2.15 µM.
Turning to `C=CC(=O)N(C1CCOC1=O)C(C(=O)NC(C)(C)C)c1cccnc1` (stereo not given), the results for the inhibition in assay [1] (20.0 µM), in assay [1] (50.0 µM) and in assay [2] (50.0 µM) were -5.08%, -7.63% and 0%, respectively.
For `COC(=O)c1c(C)nn(C(=O)c2cccs2)c1-c1snnc1C`, the inhibition in assay [1] (20.0 µM) was 35%; in assay [1] (50.0 µM), 77%. This compound also gave an IC50 in assay [2] of 0.522 µM.
For the compound `C=CC(=O)N(c1ccc2c(c1)C=CCCC2)C(C(=O)NC(C)(C)C)c1cccnc1` (stereo not given), the inhibition in assay [1] (20.0 µM) is 12.4%; in assay [1] (50.0 µM), 25.9%; in assay [2] (50.0 µM), 0%.
In the case of `O=C(NCc1ccc2c(c1)OCO2)c1nc(S(=O)(=O)Cc2ccccc2)ncc1Cl`, the inhibition in assay [1] (20.0 µM) worked out at 98.5%; in assay [1] (50.0 µM), 99.8%. In assay [2], this compound registered an IC50 of 0.509 µM.
With `COc1ccc(-c2cc(COc3cc(Cl)cc(CC(=O)Nc4cnccc4C)c3)on2)cc1`, the IC50 was found to be 71.5 µM in assay [1] and 13.8 µM in assay [2]. Further, in assay [2] (50.0 µM), the inhibition was determined as 67.3%.
Take `COc1ccc(CN2C(=O)C(=O)c3cc(Br)cc(C)c32)cc1OC`: the inhibition in assay [1] (20.0 µM) was -2.84%; in assay [1] (50.0 µM), 0.559%; in assay [2] (50.0 µM), 99.3%. Besides, the IC50 in assay [2] stood at 1.23 µM.
As for `CNC(=O)c1ccc(CS(=O)(=O)NCC(F)(F)c2ccc(F)cc2F)cc1`, the inhibition was found to be 6.87% in assay [1] (20.0 µM), 9.79% in assay [1] (50.0 µM) and 0% in assay [2] (50.0 µM).
On to `Cc1cc([C@H](C)C(=O)O)cc2[nH]c3ccc(Cl)cc3c12` (stereo in doubt), for which the inhibition amounted to 0.304% in assay [1] (20.0 µM), 3.37% in assay [1] (50.0 µM) and 9.04% in assay [2] (50.0 µM).
With `O=[N+]([O-])c1cnc(Sc2nnc(-c3ccc(Cl)cc3)o2)s1`, the figures for the inhibition in assay [1] (20.0 µM) and in assay [1] (50.0 µM) were 28.9% and 71.2%, respectively. Further, in assay [2], the IC50 came to 0.319 µM.
Turning to `COC(=O)[C@H](CO)NC(=O)[C@H](Cc1ccccc1)NC(=O)OCc1ccccc1` (stereo in doubt), the inhibition in assay [1] (20.0 µM) was 1.06%; in assay [1] (50.0 µM), 2.61%; in assay [2] (50.0 µM), 0%.
Take `C=CC(=O)N(c1ccc(C(F)(F)F)cc1)C(C(=O)NCCc1cccc(F)c1)c1cncc(O)c1` (stereo not given): the inhibition turned out to be 26.8% in assay [1] (20.0 µM) and 44.9% in assay [1] (50.0 µM). For the same compound, the half-maximal inhibitory concentration (IC50) in assay [2] came out at 17.3 µM.
Regarding `CC(=O)/C(C#N)=C(\O)Nc1ccc(C(F)(F)F)cc1`, the inhibition in assay [1] (20.0 µM) is -2.89%; in assay [1] (50.0 µM), -3%; in assay [2] (50.0 µM) it was 22.2%.
As to `CSC1=C(C#N)C2(CCCCC2)C(C#N)=C(NC(=O)CCl)N1`, the IC50 in assay [1] was 1.14 µM; in assay [2], 1.52 µM. Moreover, the inhibition in assay [2] (50.0 µM) was determined as 97.5%.
Regarding `O=C(Cc1ccsc1)N1CCN(c2cc(-c3cccs3)n[nH]2)CC1`, the results for the inhibition in assay [1] (20.0 µM) and in assay [1] (50.0 µM) were 13.1% and 42.2%, respectively. In assay [2], this compound showed an IC50 of 78.2 µM.
In the case of `Cc1nnc(NC(=O)C2COc3ccc(Cl)cc32)n1C1CC1` (stereo not given), the inhibition in assay [1] (20.0 µM) was -63.2%; in assay [1] (50.0 µM) it was -2.41%; in assay [2] (50.0 µM), 0%.
With `Cc1ccncc1NC(=O)C[C@H](c1ccccc1)N1CCC(O)CC1` (stereo in doubt), the inhibition was 6.5% in assay [1] (20.0 µM) and 34.5% in assay [1] (50.0 µM). The compound also showed an IC50 in assay [2] of 67.5 µM.
Consider `Cc1ccc(S(=O)(=O)Nc2c(-c3cccnc3)nc3ccccn23)c(C)c1`, for which the values for the inhibition in assay [1] (20.0 µM), in assay [1] (50.0 µM) and in assay [2] (50.0 µM) were 2.5%, 7.7% and 0%, respectively.
For `O=C(Nc1ccc([N+](=O)[O-])cc1)c1cc(Cl)ccc1O`, the inhibition in assay [1] (20.0 µM) is -7.24%; in assay [1] (50.0 µM), -15.6%; in assay [2] (20.0 µM), 2.8%; in assay [2] (50.0 µM), 6%.
In the case of `O=C(Nc1nncn1C1CC1)C1CCS(=O)(=O)c2ccccc21` (stereo not given), the inhibition amounted to 37.6% in assay [1] (20.0 µM) and 74.6% in assay [1] (50.0 µM). In assay [2], this compound had an IC50 of 26.8 µM.
On to `O=C1Nc2cc(N3CCCC3)ccc2C1=O`, for which the values for the inhibition in assay [1] (20.0 µM), in assay [1] (50.0 µM) and in assay [2] (50.0 µM) were 7.46%, 37.3% and 0%, respectively.
For `Cc1nc[nH]c1CN1CCN(Cc2cccc(Cl)c2)C1=O` the same measures were -0.267%, 2.39% and 0%.
The matching figures for `C#Cc1ncccc1NC(=O)Cc1cccc(Cl)c1`: -2.01%, 3.62% and 7.93%.
For `COc1cccc(CNC(=O)N2CCN(C(=O)N3CCCCC3)CC2)c1` the same measures were -3.31%, -0.332% and 0%.
With `O=S(=O)(Nc1ccccc1SCc1cccc(Cl)c1F)c1cc(Cl)sc1Cl`, the inhibition amounted to 90.3% in assay [1] (20.0 µM) and 81.3% in assay [1] (50.0 µM). Further, in assay [2], the IC50 amounted to 1.92 µM.
Consider `N#Cc1cnn(C(=O)c2cccs2)c1C1CC1`, for which the inhibition in assay [1] (20.0 µM) came out at 33.2%; in assay [1] (50.0 µM), 69%. Further, the IC50 in assay [2] came out at 0.363 µM.
`NCCn1cc(C(=O)N2CC3(CCC3)c3cc(Br)ccc32)cn1`: the inhibition in assay [1] (20.0 µM) was -2.84%; in assay [1] (50.0 µM), 7.52%; in assay [2] (50.0 µM) it was 0%.
With `Cc1ccccc1NC(=O)CC1SC(=O)N(c2ccccc2)C1=O` (stereo not given), the values for the inhibition in assay [1] (20.0 µM) and in assay [1] (50.0 µM) were 92.6% and 94.9%, respectively. The same compound had an IC50 in assay [2] of 0.658 µM.
`COc1ccccc1OCCNC(=O)c1cc(=O)[nH]c2cccc(C)c12`: the inhibition in assay [1] (20.0 µM) amounted to 91.8%; in assay [1] (50.0 µM), 96.4%; in assay [2] (50.0 µM), 89.7%. Further, the IC50 in assay [2] came out at 2.6 µM.
As for `CC(C)n1c(NC(=O)C2CCOc3ccccc32)nc2ccccc21` (stereo not given), the figures for the inhibition in assay [1] (20.0 µM), in assay [1] (50.0 µM) and in assay [2] (50.0 µM) were 27.9%, -2.12% and 8.85%, respectively.
